The values below come from patent US10570117B2, “Phenylimidazole compound” (Otsuka Pharmaceutical Factory, Inc., priority 2015, dated 2020).

Usually melting point stands for the temperature, or range, at which the solid turns liquid.

Series [1] concerns lipoprotein lipase (LPL) gene. The experiment in a line: LPL mRNA elevating action (RT-PCR quantification of LPL mRNA in C2Cl2 cells). The following applies: Mus musculus, 24 h, compound 10 μM, ratio relative to the amount of LPL mRNA in cells with DMSO only, read-out: Rate of increase in LPL mRNA. It is filed as cell-based, mouse. The method in brief:
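Read-out is LPL mRNA relative to vehicle (DMSO = 1), measured by reverse transcription and 20-cycle real-time PCR. Cells were the mouse striated-muscle line C2Cl2, treated 24 h with 10 μM compound in DMEM containing 10% FBS.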

A short description of series [2]: Solubility in gastric juice or intestinal juice model fluid (precipitation method using DMSO). The class given is physicochemical. The following applies: room temperature. The method in brief:
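Dissolved amount (μg/mL) quantified by UV of filtrate versus pre-made calibration curves. Precipitation approach: DMSO solutions spiked into pH 1.2 (JP 1st fluid) or pH 6.8 (JP 2nd fluid) medium, shaken at room temperature for 24 h before insolubles were filtered off.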

The mark [3] stands for this setting: pH 1.2, simulated gastric fluid, kinetic from dmso stock, 1st fluid for Disintegration Test of Japanese Pharmacopoeia (pH: 1.2), read-out: Solubility (μg/mL) 1st fluid.
The mark [4] stands for this setting: pH 6.8, kinetic from dmso stock, 2nd fluid for Disintegration Test of Japanese Pharmacopoeia (pH: 6.8), read-out: Solubility (μg/mL) 2nd fluid.

In brackets after ≈: the same amount, converted by molar mass. Like-named read-outs stand apart in the source and are kept apart here.

Compound `COc1cc(OCc2ccc(C(F)(F)F)cn2)ccc1-c1c[nH]c(C2CCC(C)CC2)n1` (stereo not shown) [Example 65] yielded a melting point of 137 to 142 °C. For the same compound, the fold induction at 10 µM in series [1] came to 2.89. In addition, in series [2] (setting [3]), the solubility at 24 h is 77.3 µg/mL (≈ 174 µM). In addition, the solubility at 24 h in series [2] (setting [4]) was 1.3 µg/mL (≈ 2.92 µM).

Compound `COc1cc(OCc2ccc(C(F)(F)F)cn2)ccc1-c1nc(-c2ccc(Cl)nc2)[nH]c1C` [Example 68] showed a melting point of 129 to 132 °C. Also, the fold induction at 10 µM in series [1] was found to be 2.45. The solubility at 24 h in series [2] (setting [3]) was 104 µg/mL (≈ 219 µM). The solubility at 24 h in series [2] (setting [4]) amounted to 2.3 µg/mL (≈ 4.84 µM).

For the compound `COc1cc(-c2c[nH]c(C3CCC3)n2)ccc1OCc1ccc(C(F)(F)F)cn1` [Example 73], the melting point is 210 to 213 °C (dec.). Also, the fold induction at 10 µM in series [1] worked out at 4.07. In series [2] (setting [3]), the solubility at 24 h is > 108 µg/mL. The solubility at 24 h in series [2] (setting [4]) turned out to be 5.3 µg/mL (≈ 13.1 µM).

The compound `COc1cc(OCc2ccc(C(F)(F)F)cn2)ccc1-c1c[nH]c(C2CCCCC2)n1` [Example 77] yielded a melting point of 226 to 228 °C. The fold induction at 10 µM in series [1] was 3.11. In series [2] (setting [3]), the solubility at 24 h was 8.7 µg/mL (≈ 20.2 µM). The solubility at 24 h in series [2] (setting [4]) is 1.3 µg/mL (≈ 3.01 µM).

`COc1ccc(-c2nc(-c3ccc(OCc4ccc(C(F)(F)F)cn4)cc3OC)c[nH]2)cn1` [Example 79] yielded a melting point of 187 to 189 °C. For the same compound, the fold induction at 10 µM in series [1] is 1.42. Moreover, in series [2] (setting [3]), the solubility at 24 h was 10.6 µg/mL (≈ 23.2 µM). Besides, the solubility at 24 h in series [2] (setting [4]) amounted to 1.2 µg/mL (≈ 2.63 µM).

Compound `COc1cc(OCc2ccc(C(F)(F)F)cn2)ccc1-c1c[nH]c(-c2ccc(C)nc2)n1` [Example 80] registered a melting point of 203 to 205 °C. In series [1], the fold induction at 10 µM stood at 2.01. Further, in series [2] (setting [3]), the solubility at 24 h is 84.9 µg/mL (≈ 193 µM). In series [2] (setting [4]), the solubility at 24 h came out at 0.4 µg/mL (≈ 0.908 µM).

In the case of `COc1cc(OCc2ccc(C(F)(F)F)cn2)ccc1-c1c[nH]c(-c2cccnc2)n1` [Example 89], the melting point was 240 to 242 °C. In addition, the fold induction at 10 µM in series [1] was determined as 1.69. In addition, the solubility at 24 h in series [2] (setting [3]) was 85.4 µg/mL (≈ 200 µM). Besides, the solubility at 24 h in series [2] (setting [4]) came to 1.8 µg/mL (≈ 4.22 µM).

With `COc1cc(OCc2ccncc2C(F)(F)F)ccc1-c1cnc(-c2ccc(Cl)nc2)[nH]1` [Example 100], the melting point fell in the range of 220 to 228 °C. Further, in series [1], the fold induction at 10 µM was determined as 3.05. Also, the solubility at 24 h in series [2] (setting [3]) is 15 µg/mL (≈ 32.5 µM). Further, the solubility at 24 h in series [2] (setting [4]) is < 0.3 µg/mL.

As to `COc1cc(OCc2ncc(F)cc2F)ccc1-c1cnc(-c2ccc(Cl)nc2)[nH]1` [Example 103], the melting point lay in the range of 190 to 192 °C. In addition, the fold induction at 10 µM in series [1] turned out to be 2.36. Besides, the solubility at 24 h in series [2] (setting [3]) is 36 µg/mL (≈ 84 µM). Also, the solubility at 24 h in series [2] (setting [4]) was < 0.3 µg/mL.

`COc1cc(OCc2ncc(Cl)cc2F)ccc1-c1cnc(-c2ccc(Cl)nc2)[nH]1` [Example 104] registered a melting point of 211 to 218 °C. For the same compound, the fold induction at 10 µM in series [1] is 2.27. For the same compound, the solubility at 24 h in series [2] (setting [3]) is 20.6 µg/mL (≈ 46.3 µM). Besides, the solubility at 24 h in series [2] (setting [4]) came out at 0.7 µg/mL (≈ 1.57 µM).

Compound `COc1cc(OCc2cncc(C(F)(F)F)c2)ccc1-c1cnc(-c2ccc(Cl)nc2)[nH]1` [Example 106] displayed a melting point of 191 to 203 °C. Moreover, the fold induction at 10 µM in series [1] was determined as 2.66. For the same compound, the solubility at 24 h in series [2] (setting [3]) was 31.2 µg/mL (≈ 67.7 µM). Moreover, the solubility at 24 h in series [2] (setting [4]) stood at 6.3 µg/mL (≈ 13.7 µM).

Take `COc1cc(OCc2ccnc(C(F)(F)F)c2)ccc1-c1cnc(-c2ccc(Cl)nc2)[nH]1` [Example 107]: the melting point lay in the range of 174 to 223 °C. For the same compound, the fold induction at 10 µM in series [1] was 2.68. Besides, the solubility at 24 h in series [2] (setting [3]) was 11.2 µg/mL (≈ 24.3 µM). In addition, the solubility at 24 h in series [2] (setting [4]) is 9.6 µg/mL (≈ 20.8 µM).

The compound `COc1cc(OCc2cccnc2C(F)(F)F)ccc1-c1cnc(-c2ccc(Cl)nc2)[nH]1` [Example 108] came in with a melting point of 231 to 233 °C. Further, the fold induction at 10 µM in series [1] was 3.03. Moreover, the solubility at 24 h in series [2] (setting [3]) is 4.1 µg/mL (≈ 8.9 µM). Moreover, the solubility at 24 h in series [2] (setting [4]) is < 0.3 µg/mL.
